details: from H-[N3-amine free, N2-Cbz-(3R)-3-amino-Phe(4-NMe2)]-[(3R)-3-OH-Leu]-Leu-dArg-Ile-aThr-Gly-[(3S)-3-OH-Asn]-Ser-OH; amide bond; 28-membered ring; HATU/NMM; DMF; 9.3 mM

Question: For `CC[C@H](C)[C@@H]1NC(=O)[C@@H](CCCNC(=N)N)NC(=O)[C@H](CC(C)C)NC(=O)[C@H]([C@H](O)C(C)C)NC(=O)[C@@H](NC(=O)OCc2ccccc2)[C@@H](c2ccc(N(C)C)cc2)NC(=O)[C@H](CO)NC(=O)[C@H]([C@H](O)C(N)=O)NC(=O)CNC(=O)[C@H]([C@H](C)O)NC1=O`, which ring closure, yield after HPLC is on record?
Answer: Its ring closure, yield after HPLC is 52%.

same assay, conditions: from Z-(3R)-3-amino-Phe-(3R)-3-hydroxy-Leu-Leu-dArg-Ile-alloThr-Gly-(3S)-3-hydroxy-Asn-Ser-OH; amide bond; 28-membered ring; HATU/NMM; DMF; 1.27 mM; 0.0 °C

Question: With `CC[C@H](C)[C@@H]1NC(=O)[C@@H](CCCNC(=N)N)NC(=O)[C@H](CC(C)C)NC(=O)[C@H]([C@H](O)C(C)C)NC(=O)[C@@H](NC(=O)OCc2ccccc2)[C@@H](c2ccccc2)NC(=O)[C@H](CO)NC(=O)[C@H]([C@H](O)C(N)=O)NC(=O)CNC(=O)[C@H]([C@H](C)O)NC1=O` as the molecule, how does the ring closure, yield after HPLC read?
Answer: The ring closure, yield after HPLC was 78.3%.

same assay, conditions: from Z-Phe((3R)-3-NH2)-Leu((3R)-3-OH)-Leu-dArg-Ile-aThr-Gly-Ala(3-pyridyl)-Ser-OH; amide bond; 28-membered ring; HATU/NMM; DMF; 0.0 °C

Question: Which ring closure, yield after HPLC does the source give for `CC[C@H](C)[C@@H]1NC(=O)[C@@H](CCCNC(=N)N)NC(=O)[C@H](CC(C)C)NC(=O)[C@H]([C@H](O)C(C)C)NC(=O)[C@@H](NC(=O)OCc2ccccc2)[C@@H](c2ccccc2)NC(=O)[C@H](CO)NC(=O)[C@H](Cc2cccnc2)NC(=O)CNC(=O)[C@H]([C@H](C)O)NC1=O` here?
Answer: The ring closure, yield after HPLC was 51%.

same assay, conditions: from Z-Phe((3R)-3-NH2)-Leu((3R)-3-OH)-Leu-dArg-Ile-aThr-Gly-Phe-Ser-OH?; amide bond; 28-membered ring; HATU/NMM; DMF; 0.0 °C

Question: With `CC[C@H](C)[C@@H]1NC(=O)[C@@H](CCCNC(=N)N)NC(=O)[C@H](CC(C)C)NC(=O)[C@H]([C@H](O)C(C)C)NC(=O)[C@@H](NC(=O)OCc2ccccc2)[C@@H](c2ccccc2)NC(=O)[C@H](CO)NC(=O)[C@H](Cc2ccccc2)NC(=O)CNC(=O)[C@H]([C@H](C)O)NC1=O` as the molecule, how does the ring closure, yield after HPLC read?
Answer: Its ring closure, yield after HPLC is 96%.

same assay, conditions: from Z-Phe((3R)-3-NH2)-Leu((3R)-3-OH)-Leu-dArg-Ile-aThr-Gly-Ser-Ser-OH; amide bond; 28-membered ring; HATU/NMM; DMF; 19.4 mM; 0.0 °C

Question: With `CC[C@H](C)[C@@H]1NC(=O)[C@@H](CCCNC(=N)N)NC(=O)[C@H](CC(C)C)NC(=O)[C@H]([C@H](O)C(C)C)NC(=O)[C@@H](NC(=O)OCc2ccccc2)[C@@H](c2ccccc2)NC(=O)[C@H](CO)NC(=O)[C@H](CO)NC(=O)CNC(=O)[C@H]([C@H](C)O)NC1=O` as the molecule, how does the ring closure, yield after HPLC read?
Answer: Its ring closure, yield after HPLC is 43%.

same assay, conditions: from Z-Phe((3R)-3-NH2)-Leu((3R)-3-OH)-Leu-dArg-Ile-aThr-Gly-Thr-Ser-OH?; amide bond; 28-membered ring; HATU/NMM; DMF; 0.0 °C

Question: Which ring closure, yield after HPLC does the source give for `CC[C@H](C)[C@@H]1NC(=O)[C@@H](CCCNC(=N)N)NC(=O)[C@H](CC(C)C)NC(=O)[C@H]([C@H](O)C(C)C)NC(=O)[C@@H](NC(=O)OCc2ccccc2)[C@@H](c2ccccc2)NC(=O)[C@H](CO)NC(=O)[C@H]([C@@H](C)O)NC(=O)CNC(=O)[C@H]([C@H](C)O)NC1=O` here?
Answer: Its ring closure, yield after HPLC is 65%.

details: amide bond; 28-membered ring

Question: For “[(3R)-N^2-(Benzyloxycarbonyl)-3-amino-L-phenylalanyl]-[(3R)-3-hydroxy-L-leucyl]-L-leucyl-D-arginyl-L-isoleucyl-L-allothreonyl-glycyl-[(3S)-3-hydroxy-L-asparaginyl]-L-alanine C^1.9-N^3.1-lactam trifluoroacetate”, which ring closure, isolated yield is on record?
Answer: Its ring closure, isolated yield is 93%.

Question: For “[(3R)-N^2-(Benzyloxycarbonyl)-3-amino-L-phenylalanyl]-[(3R)-3-hydroxy-L-leucyl]-L-leucyl-D-arginyl-L-isoleucyl-L-allothreonyl-glycyl-glycyl-L-serine C^1.9-N^3.1-lactam trifluoroacetate”, which ring closure, isolated yield is on record?
Answer: The ring closure, isolated yield was 38%.

Question: For “[(3R)-N^2-(Benzyloxycarbonyl)-3-amino-L-phenylalanyl]-[(3R)-3-hydroxy-L-leucyl]-L-leucyl-D-arginyl-L-isoleucyl-L-leucyl-glycyl-L-seryl-L-serine C^1.9-N^3.1-lactam trifluoroacetate”, which ring closure, isolated yield is on record?
Answer: Its ring closure, isolated yield is 97%.

Question: For “[(3R)-N^2-(Benzyloxycarbonyl)-3-amino-L-phenylalanyl]-[(3R)-3-hydroxy-L-leucyl]-L-leucyl-D-arginyl-L-isoleucyl-L-seryl-glycyl-L-seryl-L-serine C^1.9-N^3.1-lactam trifluoroacetate”, which ring closure, isolated yield is on record?
Answer: Its ring closure, isolated yield is 81%.

Question: Which ring closure, isolated yield does the source give for “[(3R)-N^2-(Benzyloxycarbonyl)-3-amino-L-phenylalanyl]-[(3R)-3-hydroxy-L-leucyl]-L-leucyl-D-arginyl-L-isoleucyl-L-valyl-glycyl-L-seryl-L-serine C^1.9-N^3.1-lactam trifluoroacetate” here?
Answer: Its ring closure, isolated yield is 62%.

Question: For “[(3R)-N^2-(Benzyloxycarbonyl)-3-amino-L-phenylalanyl]-[(3R)-3-hydroxy-L-leucyl]-L-leucyl-D-arginyl-L-leucyl-L-allothreonyl-glycyl-L-seryl-L-serine C^1.9-N^3.1-lactam trifluoroacetate”, which ring closure, isolated yield is on record?
Answer: The ring closure, isolated yield was 87%.

Question: Which ring closure, isolated yield does the source give for “[(3R)-N^2-(Benzyloxycarbonyl)-3-amino-L-phenylalanyl]-[(3R)-3-hydroxy-L-leucyl]-L-leucyl-D-arginyl-L-phenylalanlyl-L-allothreonyl-glycyl-L-seryl-L-serine C^1.9-N^3.1-lactam trifluoroacetate” here?
Answer: The ring closure, isolated yield was 76%.

Question: With “[(3R)-N^2-(Benzyloxycarbonyl)-3-amino-L-phenylalanyl]-[(3R)-3-hydroxy-L-leucyl]-L-leucyl-D-arginyl-L-valyl-L-allothreonyl-glycyl-L-seryl-L-serine C^1.9-N^3.1-lactam trifluoroacetate” as the molecule, how does the ring closure, isolated yield read?
Answer: The ring closure, isolated yield was 91%.

Question: With “[(3R)-N^2-(Benzyloxycarbonyl)-3-amino-L-phenylalanyl]-[(3R)-3-hydroxy-L-leucyl]-L-leucyl-D-arginyl-[3-trimethylsilyl-L-alanlyl]-L-allothreonyl-glycyl-L-seryl-L-serine C^1.9-N^3.1-lactam trifluoroacetate” as the molecule, how does the ring closure, isolated yield read?
Answer: Its ring closure, isolated yield is 51%.

Question: Which ring closure, isolated yield does the source give for “[(3R)-N^2-(Benzyloxycarbonyl)-3-amino-L-phenylalanyl]-[(3R)-3-hydroxy-L-leucyl]-L-norleucyl-D-arginyl)-L-isoleucyl-L-allothreonyl-glycyl-L-alanyl-L-serine C^1.9-N^3.1-lactam trifluoroacetate” here?
Answer: The ring closure, isolated yield was 80%.

Question: For “[(3R)-N^2-(Benzyloxycarbonyl)-3-amino-L-phenylalanyl]-[(3R)-3-hydroxy-L-leucyl]-L-norvalyl-D-arginyl-L-isoleucyl-L-allothreonyl-glycyl-L-alanyl-L-serine C^1.9-N^3.1-lactam trifluoroacetate”, which ring closure, isolated yield is on record?
Answer: The ring closure, isolated yield was 100%.

Question: For “[(3R)-N^2-(Benzyloxycarbonyl)-3-amino-L-phenylalanyl]-[(3R)-3-hydroxy-L-leucyl]-L-norvalyl-D-arginyl-L-isoleucyl-L-allothreonyl-glycyl-L-seryl-L-serine C^1.9-N^3.1-lactam trifluoroacetate”, which ring closure, isolated yield is on record?
Answer: Its ring closure, isolated yield is 77%.

Question: Which ring closure, isolated yield does the source give for “[(3R)-N^2-(Benzyloxycarbonyl)-3-amino-L-phenylalanyl]-[(3R)-3-hydroxy-L-leucyl]-L-valyl-D-arginyl-L-isoleucyl-L-allothreonyl-glycyl-L-seryl-L-serine C^1.9-N^3.1-lactam trifluoroacetate” here?
Answer: Its ring closure, isolated yield is 100%.

Question: With “[(3R)-N^2-(Benzyloxycarbonyl)-3-amino-L-phenylalanyl]-[(3R)-3-hydroxy-L-leucyl]-[3-tertbutyl-L-alanyl]-D-arginyl-L-isoleucyl-L-allothreonyl-glycyl-L-seryl-L-serine C^1.9-N^3.1-lactam trifluoroacetate” as the molecule, how does the ring closure, isolated yield read?
Answer: The ring closure, isolated yield was 90%.

Question: For “{(3R)-N^2-[(9H-Fluoren-9-ylmethoxy)carbonyl]-3-amino-L-phenylalanyl}-[(3R)-3-hydroxy-L-leucyl]-L-leucyl-(N^5-benzyloxycarbonyl-D-ornithyl)-L-isoleucyl-L-allothreonyl-glycyl-L-seryl-L-serine C^1.9-N^3.1-lactam trifluoroacetate”, which ring closure, isolated yield is on record?
Answer: The ring closure, isolated yield was 48%.

Question: Which ring closure, isolated yield does the source give for “{(3R)-N^2-[(9H-Fluoren-9-ylmethoxy)carbonyl]-3-amino-L-phenylalanyl}-[(3R)-3-hydroxy-L-leucyl]-L-leucyl-(N^6-benzyloxycarbonyl-D-lysyl)-L-isoleucyl-L-allothreonyl-glycyl-L-seryl-L-serine C^1.9-N^3.1-lactam trifluoroacetate” here?
Answer: Its ring closure, isolated yield is 78%.

Question: For “{(3R)-N^2-[(9H-Fluoren-9-ylmethoxy)carbonyl]-3-amino-L-phenylalanyl}-[(3R)-3-hydroxy-L-leucyl]-L-leucyl-D-arginyl-L-isoleucyl-L-allothreonyl-glycyl-(N^5-benzyloxycarbonyl-L-ornithyl-L-serine C^1.9-N^3.1-lactam trifluoroacetate”, which ring closure, isolated yield is on record?
Answer: The ring closure, isolated yield was 88%.

Question: Which ring closure, isolated yield does the source give for “{(3R)-N^2-[(9H-Fluoren-9-ylmethoxy)carbonyl]-3-amino-L-phenylalanyl}-[(3R)-3-hydroxy-L-leucyl]-L-leucyl-D-arginyl-L-isoleucyl-L-allothreonyl-glycyl-[(2S)-2-amino-4-benzyloxycarbonylaminobutyryl]-L-serine C^1.9-N^3.1-lactam trifluoroacetate” here?
Answer: Its ring closure, isolated yield is 66%.

Question: Which ring closure, isolated yield does the source give for “{(3R)-N^2-[(9H-Fluoren-9-ylmethoxy)carbonyl]-3-amino-L-phenylalanyl}-[(3R)-3-hydroxy-L-leucyl]-L-leucyl-[(2R)-2-amino-4-benzyloxycarbonylaminobutyryl]-L-isoleucyl-L-allothreonyl-glycyl-L-seryl-L-serine C^1.9-N^3.1-lactam trifluoroacetate” here?
Answer: Its ring closure, isolated yield is 85%.

same assay, conditions: amide bond; 28-membered ring; HATU/NMM; DMF; 0.0 °C

Question: For “[(3R)-N^2-(Benzyloxycarbonyl)-3-amino-L-phenylalanyl]-[(3R)-3-hydroxy-L-leucyl]-L-leucyl-D-arginyl-L-isoleucyl-L-allothreonyl-glycyl-[(3S)-3-hydroxy-L-asparaginyl]-L-serine C^1.9-N^3.1-lactam trifluoroacetate”, which ring closure, isolated yield is on record?
Answer: The ring closure, isolated yield was 73%.
